Results as given in EP0354042A2, “Aminobenzoic-acid derivatives to reduce side effects induced by an administration of immuno-suppressant” (priority 1988, dated 1990).

Tests used:
Jcl:ICR mice = experiment: Acute toxicity (LD50, Litchfield-Wilcoxon); type: in vivo; conditions: observed 7 days; for LD₅₀ Value Intraperitoneal: in physiological saline solution; for LD₅₀ Value Oral: oral by stomach sonde, in distilled water
Description: The acute toxicity was studied with Jcl:ICR mice through intraperitoneal route and oral route. For intraperitoneal route, the present substance was dissolved in a physiological saline solution and a predetermined dose of the substance was administered with an injector to the cavity. For oral route, the present substance was dissolved in a distilled water and administered forcibly through a stomach sonde.
After the administration, observation of toxicopathic symptoms of the mice were continued for 7 days and based on time to time death rates of the mice, LD₅₀ values were calculated. Both surviving and dead mice were anatomized and observed certain organs.

Bacillus subtilis M45 = experiment: Mutagenicity Rec-assay, recombination repair deficient strain; conditions: for Growth Inhibited Area M45: 16 hours at 37°C; for Growth Inhibited Area M45 - H17: difference between strains
Description: (§1) First, mutagenecity was studied with Rec-assay. […] The present substance was dissolved with sterlized water, 0.05 ml of the solution was absorbed by a round filter paper having a diameter of 8 mm and immediately the filter paper was laid on the medium (B-II agar) in a manner to cover each of the satrt point of the streak. Then, the mdium was cultured for 16 hours at a temperature of 37°C and measured growth inhibited area. Kanamycin was used as a negative control and mitomycin as a positive control.

Bacillus subtilis H17 = experiment: Mutagenicity Rec-assay, recombination repair proficient strain; conditions: 16 hours at 37°C
Description: as §1

[1] = system: TA100 of Salmonella typhimurium; experiment: Reversion assay (reversion colony test) TA100; type: cell-based; conditions: 5,000 µg/disk, 37°C for 2 days; Drug-free Control 149
Description: (§2) In addition, a reversion assay was performed using TA98 and TA100 of Salmonella typhimurium (both are histidine-requiring bacteria).
(§3) 10% by volume of 0.5 mM bithion solution containing 0.5 mM histidine was added to a soft agar solution (prepared with 6g of NaCl, 6g of agar and 1,000 ml of distilled water). Then, 0.1 ml of a solution containing 1 x 10⁸ of the bacteria and 0.1 ml of a solution of the present substance were added to 2 ml of the soft agar solution, mixed well and obtained soft agar solution was multilayered on a minimal agar medium. The medium layered was cultured at 37°C for 2 days and number of reversion colonies was counted. Furylfuramide (AF2) was used as a positive control.

[2] = system: TA98 of Salmonella typhimurium; experiment: Reversion assay (reversion colony test) TA98; type: cell-based; conditions: 5,000 µg/disk, 37°C for 2 days; Drug-free Control 13
Description: as §2, §3

[3] = Body weight of rats given CsA with the present substance; type: in vivo, Wistar male rats; conditions: at completion of the test; CsA 25 mg/kg/day i.p. 3 weeks plus present substance 300 mg/kg/day orally
Description: (§4) Various clearance tests and a saccharide tolerance test were performed after completion of the administrations. Then, after sacrificing the rats, their blood was taken for serum biochemical and general blood tests.

Wistar male rats [4] = experiment: Kidney function (inulin clearance, serum creatinine) of rats given CsA with the present substance; type: in vivo; conditions: CsA 25 mg/kg/day i.p. 3 weeks plus present substance 300 mg/kg/day orally
Description: as §4

Wistar male rats [5] = experiment: Saccharide tolerance test (pancreas function) of rats given CsA with the present substance; type: in vivo; conditions: CsA 25 mg/kg/day i.p. 3 weeks plus present substance 300 mg/kg/day orally
Description: as §4

Wistar male rats [6] = experiment: Serum biochemical test, total bilirubin (liver function) of rats given CsA with the present substance; type: in vivo; conditions: CsA 25 mg/kg/day i.p. 3 weeks plus present substance 300 mg/kg/day orally
Description: as §4

human lymphocyte = experiment: Mixed lymphocyte culture, 3H-thymidine uptake (proliferation of lymphocytes); type: cell-based; conditions: CsA 0.1 µg/ml plus present substance 100 µg/ml, cultured 6 days;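 note: percent suppression of proliferation derived from uptake with CsA alone versus CsA plus substance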
Description: A mixture of 50 µl of human lymphocyte (1.6 x 10⁶/ml) with 50 µl of the lymphocytes treated with mitomycin C (MMC) (1.7 x 10⁶/ml) was cultured for 6 days and an uptake of ³H-thymidine, an index of proliferation of lymphocyte, was studied. The medium used for culture comprised bovine fetal serum (10% in quantity) and RPMI 1640 (90% in quantity). […] From the calculated ratio, the effects of the present substance on immuno function were studied.

| SMILES | LD₅₀ Value Intraperitoneal (Jcl:ICR mice) [mg/kg] | LD₅₀ Value Oral (Jcl:ICR mice) [mg/kg] | Growth Inhibited Area M45 (Bacillus subtilis M45; 500 µg/disk) [mm] | Growth Inhibited Area M45 - H17 (Bacillus subtilis M45; 500 µg/disk) [mm] | Growth Inhibited Area M45 (Bacillus subtilis M45; 5,000 µg/disk) [mm] | Growth Inhibited Area M45 - H17 (Bacillus subtilis M45; 5,000 µg/disk) [mm] | Growth Inhibited Area H17 (Bacillus subtilis H17; 500 µg/disk) [mm] | Growth Inhibited Area H17 (Bacillus subtilis H17; 5,000 µg/disk) [mm] | No. of Reversion Colony TA100 [1] [n/plate] | No. of Reversion Colony TA98 [2] [n/plate] | Body Weight [3] [g] | Kidney Function Inulin Clearance (Wistar male rats [4]) [mL/min] | Kidney Function Serum Creatinine (Wistar male rats [4]) [mg/dL] | Blood sugar value measured 10 minutes after the test (Wistar male rats [5]) [mg/dL] | Insuline Value 10 Min.After The Test (Wistar male rats [5]) [mµ/ml] | Insuline Value Before The Test (Wistar male rats [5]) [mµ/ml] | TBI (seerum total bilirubin value) (Wistar male rats [6]) [mg/dL] | Depressing Ratio (human lymphocyte) [%] |
| --- | --- | --- | --- | --- | --- | --- | --- | --- | --- | --- | --- | --- | --- | --- | --- | --- | --- | --- |
| O=C(O)c1ccc(NC2O[C@H](CO)[C@H](O)[C@H](O)[C@H]2O)cc1 (stereo partly drawn) [Compound 14, p-Aminobenzoic acid-N-D-galactoside] | 12000 | 14550 | 0 | 0 | 0 | 0 | 0 | 0 | 51 | 7 | 215 | 1.88 | 0.66 | 584 | 6.10 | 4.13 | 0.33 | 26 |
| O=C([O-])c1ccccc1NC1O[C@H](CO)[C@H](O)[C@H](O)[C@H]1O.[Na+] (stereo partly drawn) [Compound 16, o-Aminobenzoic acid-N-D-galactoside] | 7420 | 6100 | 0 | 0 | 6 | 5 | 0 | 1 | 151 | 6 | 210 | 1.81 | 0.65 | 587 | 6.16 | 4.22 | 0.34 | 26 |
| C[C@@H]1OC(Nc2ccc(C(=O)O)cc2)[C@H](O)[C@H](O)[C@H]1O (stereo partly drawn) [Compound 18, p-Aminobenzoic acid-N-L-rhamnoside] | 15000 | 12800 | 0 | 0 | 0 | 0 | 0 | 0 | 73 | 4 | 238 | 1.97 | 0.64 | 573 | 6.44 | 4.30 | 0.29 | 27 |
| CC1OC(Nc2ccccc2C(=O)[O-])C(O)C(O)C1O.[Na+] [Compound 20, o-Aminobenzoic acid-N-L-rhamnoside] | > 15000 | 12500 | 0 | 0 | 6 | 4 | 0 | 2 | 61 | 9 | 233 | 1.95 | 0.64 | 576 | 6.38 | 4.34 | 0.31 | 26 |
| O=C(O)c1ccc(NC2O[C@H](CO)[C@@H](O)[C@H](O)[C@@H]2O)cc1 (stereo partly drawn) [Compound 22, p-Aminobenzoic acid-N-D-mannoside] | > 10000 | >10000 | 0 | 0 | 0 | 0 | 0 | 0 | 138 | 5 | 245 | 2.05 | 0.63 | 569 | 6.50 | 4.45 | 0.27 | 28 |
| O=C(O)c1cccc(NC2O[C@H](CO)[C@@H](O)[C@H](O)[C@@H]2O)c1 (stereo partly drawn) [Compound 24, m-Aminobenzoic acid-N-D-mannoside] | > 10000 | > 10000 | 0 | 0 | 7 | 6 | 0 | 1 | 90 | 6 | 240 | 2.00 | 0.64 | 578 | 6.37 | 4.40 | 0.30 | 27 |
